Test [1] concerns the target T1, Aβ42 (Homo sapiens, UniProt P05067).
T1 construct: The Aβ42 peptide was produced by Bachem AG; purchased Bachem AG
Also on record: method as in PMID 24727418. The following applies: earlier work of the same authors; cited from earlier work.

The target in test [2] is T1, Aβ42. Briefly: Polymerization assay (ThT fluorescence): inhibition of Aβ42 aggregation. The class given is biochemical. The following applies: for IC50: 25 μM Aβ42, 1% DMSO, 50 mM phosphate buffer pH 7.5, 100 mM NaCl, ThT fluorescence. The method, then:
The polymerization assay was performed as previously described in the literature. For single compounds, the reaction mixture contained 25 μM Aβ42, 0.3, 1.0, 3.0, 10, or 30 μM C, EC, GC, EGC, P-B1, or P-B3, 1% DMSO, 50 mM phosphate buffer (pH 7.5) and 100 mM NaCl. Prior to being tested, the compounds were dissolved in DMSO at concentrations of 30, 100 and 300 μM, and 1.0 and 3.0 mM, and then added to the reaction mixture to final concentrations 0.3, 1.0, 3.0, 10, and 30 μM, respectively. For the extract and its fractions, different concentration sequences were incubated in the reaction mixture. With the exception of one sequence (i.e., 3.0, 10, 30, 100 and 200 μg/mL) for Fr. Ts and another (i.e., 0.3, 1.0, 3.0, 10, 30 μg/mL) for Fr. Ps, one concentration sequence (i.e., 1.0, 3.0, 10, 30 and 100 μg/mL) was used for the extract and all of the other fractions.
(§1) The fluorescence measurements were recorded on an Envision® 2104 Multilabel Reader (Perkin Elmer, Waltham, MA, USA), with optimized excitation and emission wavelengths of 430 (BW 24 nm) and 470 nm (BW 24 nm), respectively. The reaction mixture contained 5 μM ThT and 50 mM of glycine-NaOH buffer (pH 8.5). The IC50 and EC50 values were calculated using the GraphPad Prism 5 software. All results were expressed as the mean ± SEM, and statistical analyses were performed using the Student’s t test.

Test [3] addresses T2, preformed Aβ42 fibrils (Homo sapiens, UniProt P05067).
T2 construct: The Aβ42 peptide was produced by Bachem AG; purchased Bachem AG
Put plainly: Destabilization assay (ThT fluorescence): destabilization of preformed Aβ42 fibrils. The format is biochemical. The following applies: for EC50: fibrils preformed from 25 μM Aβ42 (24 h, 37 °C), further 24 h at 37 °C with compound, ThT fluorescence. On the procedure:
The destabilization assay used to evaluate the activities of the polyphenolic compounds towards the destabilization of preformed fibrils was performed as described by Ono et al.. Briefly, a reaction mixture containing 25 μM Aβ42 and 50 mM phosphate buffer (pH 7.5 and 100 mM NaCl) was incubated on a PCR system for 24 h at 37 °C to form fibrils. All of the test compounds (i.e., C, EC, GC, EGC, P-B1, and P-B3) were initially dissolved in DMSO at concentrations of 30, 100 and 300 μM, and 1 and 3 mM, before being added to the reaction mixture to give final concentrations of 0.3, 1.0, 3.0, 10, and 30 μM, respectively. The resulting mixtures were continued the incubation of 24 h at 37 °C, and then subjected to fluorescent measurements as in the polymerization assay.
as §1

T2 sequence (P05067 672-713 limits assumed, species assumed): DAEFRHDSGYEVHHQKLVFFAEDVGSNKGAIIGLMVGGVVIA
T1 sequence (P05067 672-713 limits assumed, species assumed): as above

ginkgolide B: the “activity towards Aβ42 aggregation in vitro (in words)” value in test [1] is on record as “very little activity”.

On to `CC(C)(C)[C@]1(O)CC2OC(=O)CC23C(=O)OC2OC(=O)[C@H](O)C231` (stereo partly drawn) [bilobalide], for which, in test [1], the “activity towards Aβ42 aggregation in vitro (in words)” value is on record as “very little activity”.

Broadly, the IC50 is the concentration needed to halve the response being measured. Low readings indicate inhibition by little substance, high ones a need for much substance. A word on the EC50: it is the concentration that produces a half-maximal response. As for `Oc1cc(O)c2c(c1)O[C@H](c1cc(O)c(O)c(O)c1)[C@@H](O)C2` [GC, (−)-gallocatechin], the IC50 in test [2] was found to be 17.5 ± 0.57 µM. In addition, in test [2] (this paper's polymerization assay), the “inhibitory activity towards Aβ42 aggregation (in words)” value was “least influence”. In addition, the EC50 in test [3] was found to be 15.7 ± 3.19 µM. Besides, in test [3] (this paper's destabilization assay), the “ability to destabilize fibrils (in words)” value is listed as “least influence”.

Take `C[C@@H]1C(=O)O[C@H]2C[C@@]34[C@H]5C[C@@H](C(C)(C)C)[C@]36[C@@H](OC(=O)[C@@H]6O)O[C@@]4(C(=O)O5)[C@]21O` [ginkgolides A, ginkgolide A]: the “activity towards Aβ42 aggregation in vitro (in words)” value in test [1] was “very little activity”.

As for `Oc1cc(O)c2c(c1)O[C@H](c1cc(O)c(O)c(O)c1)[C@H](O)C2` [EGC, (−)-epigallocatechin], the IC50 in test [2] is 8.51 ± 0.96 µM. For the same compound, the EC50 in test [3] was 7.76 ± 0.94 µM.

Compound `Oc1cc(O)c2c(c1)O[C@H](c1ccc(O)c(O)c1)[C@H](O)[C@H]2c1c(O)cc(O)c2c1O[C@H](c1ccc(O)c(O)c1)[C@@H](O)C2` [P-B1, Procyanidin B1] returned an IC50 in test [2] of 3.28 ± 0.46 µM. The EC50 in test [3] worked out at 3.51 ± 0.32 µM.

Take `Oc1cc(O)c2c(c1)O[C@H](c1ccc(O)c(O)c1)[C@@H](O)C2` [C, (+)-catechin]: in test [2], inhibition was half-maximal at 14.9 ± 3.42 µM (IC50). The EC50 in test [3] was found to be 5.27 ± 1.26 µM. For the same compound, the “activity towards Aβ42 aggregation in vitro (in words)” value in test [1] is on record as “very little activity”.

The compound `Oc1cc(O)c2c(c1)O[C@H](c1ccc(O)c(O)c1)[C@H](O)C2` [EC, (−)-epicatechin] came in with an IC50 in test [2] of 9.44 ± 0.24 µM. The EC50 in test [3] was 5.99 ± 0.6 µM.

The compound `Oc1cc(O)c2c(c1)O[C@H](c1ccc(O)c(O)c1)[C@@H](O)[C@@H]2c1c(O)cc(O)c2c1O[C@H](c1ccc(O)c(O)c1)[C@@H](O)C2` [P-B3, procyanidin B3] yielded an IC50 in test [2] of 3.54 ± 0.39 µM. In addition, the EC50 in test [3] stood at 5.12 ± 0.75 µM.

The values above are taken from PMC6271394, “Catechins and Procyanidins of Ginkgo biloba Show Potent Activities towards the Inhibition of β-Amyloid Peptide Aggregation and Destabilization of Preformed Fibrils” (Molecules, 2014).
